Results published in patent US10195254B2, “Myristoylated leptin-related peptides and uses thereof” (ALBANY MEDICAL COLLEGE, priority 2014, dated 2019).
Read-outs that look alike come from different tables or passages of the source. Where a SMILES comes first, the peptide text is derived from it. Where no end group is shown, it is not given here. [ ]: non-standard residue; d: D form. The star is where a group is joined. Myristoyl = CCCCCCCCCCCCCC(=O)*

What was measured:
[1] = in vivo, cited from earlier work
[2] = system: male BKS.Cg-Dock7m+/+Leprdb/J diabetic db/db mice; assay: Fasting blood glucose in db/db mice after oral delivery in PBS or 0.3% DDM; format: in vivo; settings: oral gavage once daily
Description: Studies comparing the effects of oral delivery of myristic acid-conjugated [D-Leu-4]-OB3 in PBS or 0.3% dodecyl maltoside (DDM, Intravail®) on fasting blood glucose in six to seven week-old male BKS.Cg-Dock7^m+/+Lepr^db/J diabetic db/db mice.
Male db/db mice were given increasing concentrations of MA-[D-Leu-4]-OB3 in either PBS or DDM orally by gavage once daily in the evening for 14 consecutive days. Fasting (8 hours) blood glucose levels were measured every other day using an Accu-Chek Nano glucose meter (Roche, Indianapolis, Ind.).

[3] = Body weight gain, food and water intake in STZ-induced hyperglycemic mice; format: in vivo, male Swiss Webster mice
Description: (§1) Streptozotocin (STZ)-induced male Swiss Webster mice were used in these studies to examine the effects of MA-[D-Leu-4]-OB3 on body weight gain and insulin sensitivity in an insulin-deficient mouse model of diabetes. Using this model, the insulin sensitizing effects of MA-[D-Leu-4]-OB3 was compared with those of another well-characterized insulin-sensitizing drug, metformin.
(§2) Seven-week old male Swiss Webster mice were rendered hyperglycemic with a single intraperitoneal (ip) dose of 150 mg/kg STZ. Fasting blood glucose levels were measured prior to STZ treatment to establish normal (non-diabetic) glucose levels, and every day thereafter to assess hyperglycemia. Fasting blood glucose levels were routinely 3- to 4-fold higher than normal 4-5 days after STZ treatment.
(§3) Detemir insulin (Levemir®, Novo Nordisk, Malov, Denmark) delivery pens were used to dispense 0.025 U/100 μL phosphate buffered saline (PBS), and delivered by subcutaneous (sc) injection twice daily between 8:00 and 9:00 a.m. and 4:00 and 5:00 p.m. for 14 days. MA-[D-Leu-4]-OB3 (NeoBiolab, Cambridge, Mass.) and metformin (Sigma Aldrich, St. Louis, Mo.) were dissolved in 0.3% dodecyl maltoside (DDM, Intravail®, Aegis Therapeutics, San Diego, Calif.) reconstituted in sterile deionized water, and delivered twice daily by oral gavage between 8:00 h and 9:00 h and 16:00 h and 17:00 h at a concentration of 5 mg/kg/100 μL or 100 mg/kg/100 uL, respectively, for 14 days.
(§4) On day zero and each day thereafter, food and water intake were measured, and the mice were weighed in the morning between 8:00 h and 9:00 h. To assure fasting (8 hour) glucose levels on the days blood glucose was measured, food was removed from the cages between 8:00 h and 9:00 h and replaced immediately after measurement.

[4] = system: STZ-induced hyperglycemic male Swiss Webster mice; assay: Fasting blood glucose in STZ-induced hyperglycemic mice; format: in vivo
Description: as §1, §2, §3, §4

[5] = mouse, in vivo
Description: (§5) Three to four week-old male Swiss Webster mice weighing between 12 and 15 g were obtained from Charles River Laboratories (Troy, N.Y., USA). The animals were housed three per cage in polycarbonate cages fitted with stainless steel wire lids and air filters, and supported on ventilated racks (Thoren Caging Systems, Hazelton, Pa., USA) in the Albany Medical College Animal Resources Facility. The mice were maintained at a constant temperature (24° C.) with lights on from 07:00 to 19:00 h, and allowed food and water ad libitum until used for uptake studies.
(§6) For oral and intranasal delivery, MA-[D-Leu-4]-OB3 was dissolved in 0.3% Intravail® (Aegis Therapeutics, San Diego, Calif., USA) reconstituted in sterile deionized water at a concentration of 0.1 mg/100 μL and 0.1 mg/10 μL, respectively. At time zero (0), a single 200 μl SC, IM, or IP injection of mouse MA-[D-Leu-4]-OB3 was given to each of three mice per time point. Intranasal delivery was achieved by lightly anesthetizing the mice with isoflurane (1-4%) and delivering 10 μl of MA-[D-Leu-4]OB3 into the nares using a Gilson® P-20 pipettor. Following peptide administration, the mice were transferred to separate cages for the designated time period.
(§7) One, two, four, six, 18, and 24 h after peptide delivery, the mice were anesthetized with isoflurane (5%) and exsanguinated by cardiac puncture. The blood was collected in sterile non-heparinized plastic centrifuge tubes and allowed to stand at room temperature for 1 h. The clotted blood was rimmed from the walls of the tubes with sterile wooden applicator sticks. Individual serum samples were prepared by centrifugation for 30 min at 2600×g in an Eppendorf 5702R, A-4-38 rotor (Eppendorf North America, Westbury, N.Y., USA), pooled by time point, and stored frozen until assayed for MA-[D-Leu-4]OB3 content.
(§8) MA-[D-Leu-4]-OB3 concentrations in the pooled serum samples were measured with a competitive ELISA, developed and validated by the present inventors, with the following modification: MA-[D-Leu-4]-OB3 was used to construct the standard curve. Cross-reactivity of MA-[D-Leu-4]-OB3 with the polyclonal antibody to [D-Leu-4]-OB3 used in the ELISA was 100%. Each serum sample was assayed in duplicate. Intra- and inter-assay coefficients of variation were 0.03% and 0.2%, respectively.
(§9) Serum concentrations of MA-[D-Leu-4]OB3 vs. time following SC, IP, IM, oral, or intranasal delivery were plotted using the graphics program SigmaPlot 8.0 (SPSS Science, Chicago, Ill., USA). The area under each curve (AUC) was calculated with a function of this program, and expressed as ng/ml/min.
(§10) The period of time required for the serum concentration of MA-[D-Leu-4]OB3 to be reduced to exactly one-half of the maximum concentration achieved following IP, SC, IM, oral, and intranasal administration was calculated using the following formula: t1/2=0.693/kelim
(§11) where kelim represents the elimination constant, determined by plotting the natural log of each of the concentration points in the beta phase of the uptake profiles against time.

[6] = mouse, in vivo; remark: listed apart in the source
Description: as §5, §6, §7, §8, §9, §10, §11

Molecule: [D-Leu-4]-OB3: synthetic peptide amide with leptin-like activity that has the sequence SCSLPQT (SEQ ID NO:1); non-myristoylated comparator (SCS[dL]PQT-NH2)
- AUC ([1]; im, 1 mg): 1,481,060 ng/ml/min
- Cmax ([1]; im, 1 mg): 46,566 ng/ml
- Plasma CL ([1]; im, 1 mg): 0.68 mL/min
- Tmax ([1]; im, 1 mg): 5 min
- Vd ([1]; im, 1 mg): 29.4 mL
- t1/2 ([1]; im, 1 mg): 36 min
- AUC ([1]; inhaled or intranasal, 1 mg): 4,336,963 ng/ml/min
- Plasma CL ([1]; inhaled or intranasal, 1 mg): 1.37 mL/min
- Vd ([1]; inhaled or intranasal, 1 mg): 15.4 mL
- t1/2 ([1]; inhaled or intranasal, 1 mg): 41 min
- AUC ([1]; ip, 1 mg): 1,072,270 ng/ml/min
- Cmax ([1]; ip, 1 mg): 22,519 ng/ml
- Tmax ([1]; ip, 1 mg): 5 min
- Vd ([1]; ip, 1 mg): 65.5 mL
- clearance ([1]; ip, 1 mg): 0.93 mL/min
- t1/2 ([1]; ip, 1 mg): 49 min
- AUC ([1]; po, 1 mg): 552,710 ng/ml/min
- Cmax ([1]; po, 1 mg): 8,574 ng/ml
- Plasma CL ([1]; po, 1 mg): 1.81 mL/min
- Tmax ([1]; po, 1 mg): 50 min
- Vd ([1]; po, 1 mg): 47.9 mL
- t1/2 ([1]; po, 1 mg): 20 min
- AUC ([1]; sc, 1 mg): 1,182,498 ng/ml/min
- Cmax ([1]; sc, 1 mg): 35,063 ng/ml
- Plasma CL ([1]; sc, 1 mg): 0.85 mL/min
- Tmax ([1]; sc, 1 mg): 5 min
- Vd ([1]; sc, 1 mg): 42.9 mL
- t1/2 ([1]; sc, 1 mg): 34 min
- period of absorption [1]: 5 to 60 min

Molecule: CCCCCCCCCCCCCC(=O)N[C@@H](CO)C(=O)N[C@@H](CS)C(=O)N[C@@H](CO)C(=O)N[C@H](CC(C)C)C(=O)N1CCC[C@H]1C(=O)N[C@@H](CCC(N)=O)C(=O)N[C@H](C(N)=O)[C@@H](C)O [MA-[D-Leu-4]-OB3] (Myristoyl-SCS[dL]PQT-NH2)
- fasting blood glucose levels ([2]; 100 or 250 mcg/day in 0.3% DDM, 14 days): significantly reduced
- fasting blood glucose levels ([2]; 250 mcg/day in 0.3% DDM, end of 14-day treatment): reduced to levels seen in non-diabetic BKS mice
- fasting blood glucose levels ([2]; 250 or 500 mcg/day in PBS, after 14 days): unchanged from those in control mice receiving PBS alone
- heavier at the end of the 14-day test period (body weight gain) [3]: 8.1%
- Cumulative food intake ([3]; 14 days): 103.3 ± 2.3 gm/mouse
- Cumulative water intake ([3]; 14 days): 452.5 ± 6.4 mL/mouse
- body weight % of initial ([3]; after 14 days): 108.1%
- body weight Change ([3]; after 14 days): +2.0 gm
- Final body weight ([3]; after 14 days twice daily: MA-[D-Leu-4]-OB3 5 mg/kg oral, metformin 100 mg/kg oral, insulin 0.025 U sc): 26.8 ± 1.6 gm
- Initial body weight ([3]; baseline, STZ mice): 24.8 ± 1.4 gm
- effect on fasting blood glucose levels ([4]; 14 day study, combination: within two days and throughout the study): very little effect
- blood glucose % of initial ([4]; after 14 days): 98.8%
- blood glucose Change ([4]; after 14 days): -6 mg/dL
- Initial blood glucose ([4]; baseline, fasting): 507.0 ± 6.0 mg/dL
- reduction of fasting blood glucose levels ([4]; end of 14-day test period versus beginning): 1.2%
- Final blood glucose ([4]; fasting, after 14 days twice daily: MA-[D-Leu-4]-OB3 5 mg/kg oral, metformin 100 mg/kg oral, insulin 0.025 U sc): 501.0 ± 12.3 mg/dL
- times more effective than metformin in improving insulin sensitivity ([4]; on a mass basis, 10 mg/kg/day vs. 200 mg/kg/day): 20 times
- times more effective than metformin in improving insulin sensitivity ([4]; on a molar basis): 6.1 times
- half-life ([5]; half-life): ≤ 1680 min
- AUC ([5]; im, 0.1 mg): 842 µg·h/mL
- Cmax ([5]; im, 0.1 mg): 89800 ng/mL
- Tmax ([5]; im, 0.1 mg): 2 h
- half-life ([5]; im, 0.1 mg, t1/2): 330 min
- AUC ([5]; inhaled or intranasal, 0.1 mg): 158 µg·h/mL
- Cmax ([5]; inhaled or intranasal, 0.1 mg): 10000 ng/mL
- Tmax ([5]; inhaled or intranasal, 0.1 mg): 6 h
- half-life ([5]; inhaled or intranasal, 0.1 mg, t1/2): 492 min
- AUC ([5]; ip, 0.1 mg): 1210 µg·h/mL
- Tmax ([5]; ip, 0.1 mg): 2 h
- half-life ([5]; ip, 0.1 mg, t1/2): 246 min
- AUC ([5]; po, 0.1 mg): 278 µg·h/mL
- Cmax ([5]; po, 0.1 mg): 14400 ng/mL
- Tmax ([5]; po, 0.1 mg): 4 h
- half-life ([5]; po, 0.1 mg, t1/2): 1730 min
- AUC ([5]; sc, 0.1 mg): 1830 µg·h/mL
- Tmax ([5]; sc, 0.1 mg): 2 h
- half-life ([5]; sc, 0.1 mg, t1/2): 120 min
- period of absorption [6]: 2 to 6 h
- relative bioavailability [6]: 5.3
- Plasma CL ([6]; im, 0.1 mg): 0.12 mL/min
- clearance ([6]; im, 0.1 mg): 0.12 mL/min
- t1/2 ([6]; im, 0.1 mg): 5.9 h
- reduction of Cmax ([6]; inhaled or intranasal): 80%
- relative bioavailability ([6]; inhaled or intranasal): 1.0
- Plasma CL ([6]; inhaled or intranasal, 0.1 mg): 0.63 mL/min
- Vd ([6]; inhaled or intranasal, 0.1 mg): 447.0 mL
- clearance ([6]; inhaled or intranasal, 0.1 mg): 0.63 mL/min
- relative bioavailability ([6]; ip): 7.7
- Clearance from the plasma ([6]; ip, 0.1 mg): 0.08 mL/min
- Vd ([6]; ip, 0.1 mg): 30.9 mL
- clearance ([6]; ip, 0.1 mg): 0.0798 mL/min
- t1/2 ([6]; ip, 0.1 mg): 4.5 h
- reduction of Cmax ([6]; po): 31%
- relative bioavailability ([6]; po): 1.8
- Plasma CL ([6]; po, 0.1 mg): 0.36 mL/min
- Vd ([6]; po, 0.1 mg): 900.8 mL
- clearance ([6]; po, 0.1 mg): 0.36 mL/min
- relative bioavailability ([6]; sc): 11.7
- Plasma CL ([6]; sc, 0.1 mg): 0.05 mL/min
- Vd ([6]; sc, 0.1 mg): 8.6 mL
- clearance ([6]; sc, 0.1 mg): 0.05 mL/min
